SMILES strings stand for the structures.

For this experiment, the system named is Human cervical carcinoma KB cells. Nature of the experiment: Growth inhibition assay, KB cells (MTS). The experiment is classed as cell-based. The settings on record: 72 h, read-out: IC50 (concentration causing 50% cell growth inhibition). The method, then:
Anticancer activities of the compounds of this invention were evaluated using a growth inhibition assay described in Kuo et al., Cancer Res. 2004, 64(13), 4621-4628.
Human cervical carcinoma KB cells were maintained in plastic dishes in DMEM medium supplemented with 10% fetal bovine serum. For in vitro treatment, tumor cells were seeded in […] of culture medium/well in 96-well plates to a final cell density of 6×10^3 cell/mL and incubated in a CO2 incubator at 37° C. for 24 h. The cells were treated with at least five different concentrations of a test compound, and incubated in a CO2 incubator at 37° C. for 72 h. The number of viable cells was estimated using MTS assay and absorbance was measured at 490 nm. For each test compound, dose-response curves were measured with at least five different drug concentrations, and the concentration causing 50% cell growth inhibition (IC50) compared with the control was calculated.

As for `Cc1cc(=O)oc2c1ccc1oc(C(=O)c3ccccc3)c(C3CCCCC3)c12` [Compound 165], the IC50 was in the range of 101 to 999 nM.
As for `Cc1cc(=O)oc2c1ccc1oc(Cc3ccccc3)c(-c3ccccc3)c12` [Compound 173], the figure is 101 to 999 nM; as for `Cc1cc(=O)oc2c1ccc1oc(/C(=N/NC(N)=O)c3ccccc3)c(-c3ccccc3)c12` [Compound 174], 1000 to 10000 nM; as for `Cc1cc(=O)oc2c1ccc1oc(/C(=N/OCc3ccccc3)c3ccccc3)c(-c3ccccc3)c12` [Compound 175], 101 to 999 nM.
As to `CO/N=C(\c1ccccc1)c1oc2ccc3c(C)cc(=O)oc3c2c1-c1ccccc1` [Compound 176], the IC50 was in the range of 1000 to 10000 nM.
The figure for `Cc1cc(=O)oc2c1ccc1oc(C(=O)c3cccc(OCCOCCOCCO)c3)c(-c3ccccc3)c12` [Compound 177] is 101 to 999 nM.
As for `Cc1cc(=O)oc2c1ccc1oc(C(=O)c3cccc(OCCN[C@@]45C[C@@H]6C[C@@H](C[C@@](O)(C6)C4)C5)c3)c(-c3ccccc3)c12` [Compound 183], the figure is 101 to 999 nM; as for `Cc1cc(=O)oc2c1ccc1oc(C(=O)c3cccc(OCCO)c3)c(-c3ccccc3)c12` [Compound 184], 101 to 999 nM.
As for `Cc1cc(=O)oc2c1ccc1oc(C(=O)c3cccc(OCCO[Si](C)(C)C(C)(C)C)c3)c(-c3ccccc3)c12` [Compound 189], the figure is 101 to 999 nM.
In the case of `Cc1cc(=O)oc2c1ccc1oc(C(=O)c3cccc(OCCCO[Si](C)(C)C(C)(C)C)c3)c(-c3ccccc3)c12` [Compound 190], the IC50 fell in the range of 101 to 999 nM.
The figure for `Cc1cc(=O)oc2c1ccc1oc(C(=O)c3cccc(OCCCCCCO[Si](C)(C)C(C)(C)C)c3)c(-c3ccccc3)c12` [Compound 193] is 101 to 999 nM.
Take `CC(=O)OCC1C(OCCOc2cccc(C(=O)c3oc4ccc5c(C)cc(=O)oc5c4c3-c3ccccc3)c2)OC(OC(C)=O)C(OC(C)=O)C1OC(C)=O` (centres unmarked) [Compound 194]: the IC50 lay within 101 to 999 nM.
The figure for `Cc1cc(=O)oc2c1ccc1oc(C(=O)c3cccc(OCCCOC4OC(CO)C(O)C(O)C4O)c3)c(-c3ccccc3)c12` (centres unmarked) [Compound 197] is 101 to 999 nM.
As for `Cc1cc(=O)oc2c1ccc1oc(C(=O)c3ccccc3O)c(-c3ccccc3)c12` [Compound 204], the figure is 101 to 999 nM; as for `Cc1cc(=O)oc2c1ccc1oc(C(=O)c3ccccc3)c(-c3cccc4ccccc34)c12` [Compound 206], 101 to 999 nM; as for `Cc1cc(=O)oc2c1ccc1oc(C(=O)c3ccc4ccccc4c3)c(-c3ccc(Br)cc3)c12` [Compound 208], 1000 to 10000 nM.
Take `Cc1cc(=O)oc2c1ccc1oc(C(=O)c3ccc(F)cc3)c(-c3ccc(Br)cc3)c12` [Compound 209]: the IC50 fell in the range of 101 to 999 nM.
The figure for `Cc1cc(=O)oc2c1ccc1oc(C(=O)c3ccc(Cl)cc3)c(-c3ccc(Br)cc3)c12` [Compound 210] is 1000 to 10000 nM; for `Cc1cc(=O)oc2c1ccc1oc(C(=O)c3ccc(Br)cc3)c(-c3ccc(Br)cc3)c12` [Compound 211] it is 1000 to 10000 nM; for `Cc1ccc(C(=O)c2oc3ccc4c(C)cc(=O)oc4c3c2-c2ccc(Br)cc2)cc1` [Compound 212] it is 1000 to 10000 nM.
The figure for `COc1ccc(C(=O)c2oc3ccc4c(C)cc(=O)oc4c3c2-c2ccc(Br)cc2)cc1` [Compound 214] is 1000 to 10000 nM.
Take `Cc1cc(=O)oc2c1ccc1oc(C(=O)c3cccc(Cl)c3)c(-c3ccc(Br)cc3)c12` [Compound 217]: the IC50 lay within 101 to 999 nM.
Regarding `COc1ccccc1C(=O)c1oc2ccc3c(C)cc(=O)oc3c2c1-c1ccc(Br)cc1` [Compound 219], the IC50 was 101 to 999 nM.
The figure for `Cc1cc(=O)oc2c1ccc1oc(C(=O)c3ccc4ccccc4c3)c(-c3ccc(F)cc3)c12` [Compound 220] is 101 to 999 nM.
As for `Cc1cc(=O)oc2c1ccc1oc(C(=O)c3cc(F)ccc3F)c(-c3ccc(F)cc3)c12` [Compound 221], the figure is 101 to 999 nM.
As for `COc1ccc(C(=O)c2oc3ccc4c(C)cc(=O)oc4c3c2-c2ccc(Cl)cc2)cc1` [Compound 223], the IC50 lay within 1000 to 10000 nM.

The values are drawn from patent publication US8058427B2, “Coumarin compounds and their use for treating cancer” (National Health Research Institutes, priority 2008, dated 2011).
